Patent US11478469B2, “Combination product of BCL-2 inhibitor and MDM2 inhibitor and use thereof in the prevention and/or treatment of diseases” (ASCENTAGE PHARMA (SUZHOU) CO., LTD., priority 2018, dated 2022)

How the values were obtained:
[1] = system: human RS4;11 (ALL) mouse xenograft tumor; test: Human RS4;11 ALL mouse xenograft tumor model; format: in vivo; conditions: for antitumor effect in words: 21 days of administration, Compound 6 50 mg/kg qd alone (12.5 or 50 mg/kg in combination), APG-115 50 mg/kg q2d; for CR (tumor complete regression), mice per group, day 21 after administration / PR (tumor partial regression), mice per group, day 21 after administration / RTV on day 21 after administration (mean ± standard error) / T/C (%) on day 21 after administration / Tumor remission rate % on day 21 after administration: Compound 6 50 mg/kg qd and/or APG-115 50 mg/kg q2d; for Tumor remission rate % on day 21 after administration: remission including CR, PR, and SD
Description: A subcutaneous xenograft tumor model of human tumor immunodeficient mice was established by cell inoculation (see: Gould S E et al. Translational value of mouse models in oncology drug development. Nature medicine. 2015 21, 431-439; and, Souers A J et al. ABT-199, a potent and selective BCL-2 inhibitor, achieves antitumor activity while sparing platelets. Nature medicine. 2012 19.202-208): tumor cells in logarithmic growth phase were collected, counted and resuspended in 1×PBS, and the cell suspension concentration was adjusted to 2.5-5×10^7/mL. Using a 1 mL syringe ([…]), the tumor cells were inoculated subcutaneously in the right side of immunodeficient mice, 5-10×106/0.2 mL/mouse (experimental animals were purchased from Beijing Vital River Laboratory Animal Technology Co., Ltd. SCXK (Beijing) 2016-0006). All animal experiments were strictly in accordance with the laboratory animal use and management practices of GenePharma Co., Ltd. and Ascentage Pharma Group Co., Ltd. The calculation of relevant parameters referred to the Chinese CFDA “Guidelines for Non-Clinical Research Techniques of Cytotoxic Antitumor Drugs”.
Animal body weight and tumor size were measured twice a week during the experiment. The conditions and death of the animals were observed every day. Routine monitoring included the effects of tumor growth and treatment on normal animal behaviors, including activity, feeding and drinking situations, weight gain or loss, eyes, coat and other abnormalities in the experimental animals. The deaths and clinical symptoms observed during the experiment were recorded in the raw data. The entire operations of administration, measurement of mouse body weight and tumor volume were performed in a clean bench. Plasma and tumor tissues were collected, weighed and photographed after the end of the last administration according to the experimental protocol. Plasma and tumor samples were frozen and stored at −80° C.
Tumor volume (TV) was calculated as: TV=a×b2/2, in which a and b represented the length and width of the tumor as measured, respectively. The relative tumor volume (RTV) was calculated as: RTV=Vt/V1, in which V1 was the tumor volume at the time of grouping and administration, and Vt was the tumor volume measured on a day after administration. The evaluation index of anti-tumor activity was the relative tumor proliferation rate T/C (%), which was calculated as: relative tumor proliferation rate T/C (%)=(TRTV/CRTV)×100%, in which TRTV was the RTV of the treatment group, CRTV was the RTV of the vehicle control group; tumor remission rate (%) was calculated as: (the number of SD (stable disease), PR (tumor partial regression) and CR (tumor complete regression) in the tumor-bearing mice after treatment)/the total number of mice in the group×100%. Change of body weight %=(measured body weight−body weight at the time of grouping)/body weight at the time of grouping×100%.
The synergistic analysis was performed by the following formula (Gould S E et al. Translational value of mouse models in oncology drug development. Nature medicine. 2015 21, 431-439): synergy factor=((A/C)×(B/C))/(AB/C); A=RTV value of the group administered with A only; B═RTV value of the group administered with B only; C=RTV value of the vehicle control group; AB=RTV value of the group administered with A and B in combination (Clarke R. Issues in experimental design and endpoint analysis in the study of experimental cytotoxic agents in vivo in breast cancer and other models [J]. Breast Cancer Research & Treatment, 1997, 46(2-3): 255-278).
(1) The experimental method was as described in Section (2) of Example 1. RS4;11 carried wild-type p53 and was an ideal model for evaluating the anti-tumor effect of MDM2 inhibitors. […]

[2] = system: MOLM-13-Luc systemic human AML; test: Systemic MOLM-13-Luc human AML xenograft model in NOD SCID mice; format: in vivo, mouse; conditions: compound 6 100 mg/kg qd×21 d; APG-115 100 mg/kg daily for seven days
Description: (1) The combined benefits of APG-115 and compound 6 for the therapy of AML was further evaluated in a difficult-to-treat disseminated MOLM-13-Luc systemic human AML model.
The MOLM-13-Luc tumor cells were maintained in vitro as suspension culture in RPMI 1640 medium supplemented with 10% heat inactivated fetal bovine serum (Gibco product), 100 U/mL penicillin and 100 μg/mL streptomycin, at 37° C. in an atmosphere of 5% CO2 in air. The tumor cells were routinely subcultured twice weekly. The cells growing in an exponential growth phase were harvested and counted for tumor inoculation.
The female NOD SCID mice were pre-treated with 2 times of 150 mg/kg cyclophosphamide, QD, at 24 hours before cell inoculation. Each mouse was inoculated with MOLM-13-Luc tumor cells (2×10^6/mouse) in 0.2 mL of PBS via tail vein for tumor development.
Animals were selected for grouping on day 3 after tumor implantation when the average bioluminescence measurement reached 3.18×107 photons/sec. A high dose pulse regimen (i.e. 100 mg/kg daily for seven days) was applied for APG-115 in this study.

| Compound | antitumor effect in words [1] | CR (tumor complete regression), mice per group, day 21 after administration [1] | PR (tumor partial regression), mice per group, day 21 after administration [1] | RTV on day 21 after administration (mean ± standard error) [1] | T/C (%) on day 21 after administration [1] | Tumor remission rate % on day 21 after administration [1] | anti-leukemia activity / bioluminescence signals in words [2] |
| --- | --- | --- | --- | --- | --- | --- | --- |
| CCN1[C@@H](C(=O)NC23CCC(C(=O)O)(CC2)CC3)[C@H](c2cccc(Cl)c2F)[C@]2(C(=O)Nc3cc(Cl)ccc32)C12CCCCC2 [APG-115] | no tumor growth inhibition effect | 0/5 | 0/5 | 11.1 ± 0.9 | 106% | 0% | remarkedly decreased bioluminescence signals |
| O=C(NS(=O)(=O)c1ccc(NC[C@H]2COCCO2)c([N+](=O)[O-])c1)c1ccc(N2CCN(CC3=C(c4ccc(Cl)cc4)CC4(CCC4)CC3)CC2)cc1Oc1cnc2[nH]ccc2c1 [Compound 6, (S)-N-((4-(((1,4-dioxan-2-yl)methyl)amino)-3-nitrophe-nyl)sulfonyl)-2-((1H-pyrrolo[2,3-b]pyridin-5-yl)oxy)-4-(4-((6-(4-chlorophenyl)spiro[3.5]non-6-en-7-yl)meth-yl)piperazin-1-yl)benzamide] | excellent antitumor effect | 0/5 | 1/5 | 1.8 ± 0.4 | 17% | 20% | limited anti-leukemia activity |
